Measurements reported in US20250041215A1, “MULTIDOSE PRESERVATIVE-FREE (MDPF) OPHTHALMIC DOSE DELIVERY WITH ADDITION OF FORMULATION SURFACTANTS” (ALCON INC., priority 2023, published 2025).

Test: Surface tension of ophthalmic composition with added surfactant (Biolin Sigma 700/701 tensiometer)
Type: physicochemical
Details: surfactant added at 0.1% w/v to ophthalmic composition A or B, FIGS. 4-6

Substance	change of surface tension of the ophthalmic composition	change of surface tension of the ophthalmic composition (listed as tyloxapol)
tyloxapol	reduced the surface tension the most	surface tension was lowered
polysorbate 80	surface tension was lowered	
polyoxyl 40 stearate	surface tension was lowered	
